# Data as given in article PMC10507085, “Pharmacological inhibition of TBK1/IKKε blunts immunopathology in a murine model of SARS-CoV-2 infection” (Nature Communications, 2023).
# Legend:
# Assay in all cases: biochemical
# Set-up in all cases: KINOMEscan competition binding, DNA-tagged kinase against immobilised ligand, qPCR read-out
# Details in all cases: read-out: Percent Control
# ERBB3 = ERBB3 (Homo sapiens, UniProt P21860)
# CSF1R-autoinhibited = CSF1R-autoinhibited (Homo sapiens, UniProt P07333)
# RET = RET (Homo sapiens, UniProt P07949)
# EPHA3 = EPHA3 (Homo sapiens, UniProt P29320)
# MAPK14 = MAPK14 (Homo sapiens, UniProt Q16539)
# Chain of MAPK14 (Q16539 whole entry): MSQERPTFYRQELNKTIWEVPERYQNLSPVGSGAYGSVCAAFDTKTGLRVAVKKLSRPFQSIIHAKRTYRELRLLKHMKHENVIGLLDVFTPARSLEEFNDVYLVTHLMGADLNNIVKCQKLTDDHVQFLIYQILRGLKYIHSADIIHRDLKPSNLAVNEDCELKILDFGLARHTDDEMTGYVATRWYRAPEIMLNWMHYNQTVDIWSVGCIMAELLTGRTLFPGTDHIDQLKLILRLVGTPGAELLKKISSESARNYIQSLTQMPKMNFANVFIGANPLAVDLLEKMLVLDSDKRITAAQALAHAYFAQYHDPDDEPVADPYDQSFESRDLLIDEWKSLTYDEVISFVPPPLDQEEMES
# DAPK2 = DAPK2 (Homo sapiens, UniProt Q9UIK4)
# Chain of DAPK2 (Q9UIK4 whole entry): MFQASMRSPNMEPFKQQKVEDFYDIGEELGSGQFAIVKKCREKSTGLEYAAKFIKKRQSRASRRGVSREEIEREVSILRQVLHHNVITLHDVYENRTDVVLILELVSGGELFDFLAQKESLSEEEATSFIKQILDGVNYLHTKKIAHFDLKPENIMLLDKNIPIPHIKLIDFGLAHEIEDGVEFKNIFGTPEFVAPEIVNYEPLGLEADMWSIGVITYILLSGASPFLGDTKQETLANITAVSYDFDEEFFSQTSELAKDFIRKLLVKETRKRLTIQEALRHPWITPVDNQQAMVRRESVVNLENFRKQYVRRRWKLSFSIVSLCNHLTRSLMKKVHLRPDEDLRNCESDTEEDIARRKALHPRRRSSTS
# AKT3 = AKT3 (Homo sapiens, UniProt Q9Y243)
# PDGFRB = PDGFRB (Homo sapiens, UniProt P09619)
# Chain of PDGFRB (P09619 whole entry): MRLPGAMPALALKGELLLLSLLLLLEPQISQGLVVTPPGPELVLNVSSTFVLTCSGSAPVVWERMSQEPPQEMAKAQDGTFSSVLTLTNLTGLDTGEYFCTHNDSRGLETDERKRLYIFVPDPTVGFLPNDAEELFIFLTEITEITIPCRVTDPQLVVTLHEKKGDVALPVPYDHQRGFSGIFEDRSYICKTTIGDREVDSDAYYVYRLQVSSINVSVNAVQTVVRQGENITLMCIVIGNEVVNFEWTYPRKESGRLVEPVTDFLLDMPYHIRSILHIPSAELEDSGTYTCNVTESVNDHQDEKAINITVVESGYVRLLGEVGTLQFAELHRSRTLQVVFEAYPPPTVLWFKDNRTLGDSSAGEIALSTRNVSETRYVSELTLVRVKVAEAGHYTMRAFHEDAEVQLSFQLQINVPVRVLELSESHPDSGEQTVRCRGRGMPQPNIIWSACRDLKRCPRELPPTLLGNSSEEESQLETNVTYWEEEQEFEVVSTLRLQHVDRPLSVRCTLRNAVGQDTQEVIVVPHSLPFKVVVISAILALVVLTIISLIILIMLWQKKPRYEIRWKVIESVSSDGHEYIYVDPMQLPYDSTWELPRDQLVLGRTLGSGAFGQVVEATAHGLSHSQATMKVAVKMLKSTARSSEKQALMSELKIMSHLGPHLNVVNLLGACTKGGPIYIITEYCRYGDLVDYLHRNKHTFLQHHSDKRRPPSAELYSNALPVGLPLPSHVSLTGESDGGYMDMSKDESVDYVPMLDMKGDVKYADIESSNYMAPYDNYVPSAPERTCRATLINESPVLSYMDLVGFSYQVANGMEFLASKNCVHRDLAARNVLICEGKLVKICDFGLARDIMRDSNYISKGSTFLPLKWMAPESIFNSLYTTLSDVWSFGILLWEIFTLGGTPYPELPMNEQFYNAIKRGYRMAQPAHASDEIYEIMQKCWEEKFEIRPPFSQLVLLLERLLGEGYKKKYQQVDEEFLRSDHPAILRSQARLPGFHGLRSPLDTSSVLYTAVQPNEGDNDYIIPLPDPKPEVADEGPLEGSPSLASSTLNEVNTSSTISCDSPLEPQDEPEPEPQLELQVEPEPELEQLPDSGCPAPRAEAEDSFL
# BUB1 = BUB1 (Homo sapiens, UniProt O43683)
# NEK10 = NEK10 (Homo sapiens, UniProt Q6ZWH5)
# NEK6 = NEK6 (Homo sapiens, UniProt Q9HC98)
# MAP4K3 = MAP4K3 (Homo sapiens, UniProt Q8IVH8)
# PRKCD = PRKCD (Homo sapiens, UniProt Q05655)
# Chain of PRKCD (Q05655 whole entry): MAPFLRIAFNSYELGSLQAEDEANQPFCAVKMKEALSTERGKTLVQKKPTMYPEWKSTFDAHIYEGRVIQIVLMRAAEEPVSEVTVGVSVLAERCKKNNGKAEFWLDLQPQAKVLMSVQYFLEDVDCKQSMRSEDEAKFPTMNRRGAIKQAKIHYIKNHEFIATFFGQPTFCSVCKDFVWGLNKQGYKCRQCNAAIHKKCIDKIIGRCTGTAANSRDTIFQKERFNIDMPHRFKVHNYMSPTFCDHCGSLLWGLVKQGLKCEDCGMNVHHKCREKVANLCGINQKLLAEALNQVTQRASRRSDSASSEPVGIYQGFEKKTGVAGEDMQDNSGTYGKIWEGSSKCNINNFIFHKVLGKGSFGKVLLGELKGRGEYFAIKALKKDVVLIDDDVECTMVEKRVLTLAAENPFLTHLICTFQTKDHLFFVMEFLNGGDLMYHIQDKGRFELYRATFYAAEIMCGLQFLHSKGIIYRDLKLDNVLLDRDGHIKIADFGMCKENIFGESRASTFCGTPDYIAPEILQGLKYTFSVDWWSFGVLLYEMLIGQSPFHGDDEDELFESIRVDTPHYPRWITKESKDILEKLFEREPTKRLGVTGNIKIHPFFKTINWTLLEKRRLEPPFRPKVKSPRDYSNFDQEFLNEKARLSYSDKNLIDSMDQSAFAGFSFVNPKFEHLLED
# LIMK2 = LIMK2 (Homo sapiens, UniProt P53671)
# MAK = MAK (Homo sapiens, UniProt P20794)
# Chain of MAK (P20794 whole entry): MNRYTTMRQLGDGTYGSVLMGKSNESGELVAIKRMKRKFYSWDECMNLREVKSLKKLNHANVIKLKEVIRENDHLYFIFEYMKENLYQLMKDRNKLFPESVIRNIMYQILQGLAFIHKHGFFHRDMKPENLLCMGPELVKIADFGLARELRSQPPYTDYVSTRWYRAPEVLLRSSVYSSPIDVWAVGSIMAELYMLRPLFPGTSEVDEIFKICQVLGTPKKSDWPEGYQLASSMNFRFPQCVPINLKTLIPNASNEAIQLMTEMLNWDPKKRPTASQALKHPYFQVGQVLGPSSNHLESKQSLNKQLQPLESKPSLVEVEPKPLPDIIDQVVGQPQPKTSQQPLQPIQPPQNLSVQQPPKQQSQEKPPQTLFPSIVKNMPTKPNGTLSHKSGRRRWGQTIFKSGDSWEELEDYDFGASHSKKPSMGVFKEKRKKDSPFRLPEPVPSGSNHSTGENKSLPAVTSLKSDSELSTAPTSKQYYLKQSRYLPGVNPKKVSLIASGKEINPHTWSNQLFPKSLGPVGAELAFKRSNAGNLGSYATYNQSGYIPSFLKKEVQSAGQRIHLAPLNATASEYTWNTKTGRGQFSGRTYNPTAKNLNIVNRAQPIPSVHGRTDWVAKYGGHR
# NEK3 = NEK3 (Homo sapiens, UniProt P51956)
# Chain of NEK3 (P51956 whole entry): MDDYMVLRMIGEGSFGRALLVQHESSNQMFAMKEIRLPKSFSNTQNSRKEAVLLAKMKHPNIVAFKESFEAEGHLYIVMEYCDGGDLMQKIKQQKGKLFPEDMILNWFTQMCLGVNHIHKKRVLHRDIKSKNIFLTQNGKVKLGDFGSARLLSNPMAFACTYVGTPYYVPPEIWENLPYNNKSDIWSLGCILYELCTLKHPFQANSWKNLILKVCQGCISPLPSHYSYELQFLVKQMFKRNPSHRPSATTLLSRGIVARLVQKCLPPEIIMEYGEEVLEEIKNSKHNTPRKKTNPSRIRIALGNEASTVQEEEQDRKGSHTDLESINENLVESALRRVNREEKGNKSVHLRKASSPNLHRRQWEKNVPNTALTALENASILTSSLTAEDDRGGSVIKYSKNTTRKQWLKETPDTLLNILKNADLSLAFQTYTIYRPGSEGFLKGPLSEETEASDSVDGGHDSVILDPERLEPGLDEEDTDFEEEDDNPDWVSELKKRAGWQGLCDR
# MAP3K9 = MAP3K9 (Homo sapiens, UniProt P80192)
# TEK = TEK (Homo sapiens, UniProt Q02763)
# MYLK3 = MYLK3 (Homo sapiens, UniProt Q32MK0)
# CDK17 = CDK17 (Homo sapiens, UniProt Q00537)
# Chain of ERBB3 (P21860 whole entry): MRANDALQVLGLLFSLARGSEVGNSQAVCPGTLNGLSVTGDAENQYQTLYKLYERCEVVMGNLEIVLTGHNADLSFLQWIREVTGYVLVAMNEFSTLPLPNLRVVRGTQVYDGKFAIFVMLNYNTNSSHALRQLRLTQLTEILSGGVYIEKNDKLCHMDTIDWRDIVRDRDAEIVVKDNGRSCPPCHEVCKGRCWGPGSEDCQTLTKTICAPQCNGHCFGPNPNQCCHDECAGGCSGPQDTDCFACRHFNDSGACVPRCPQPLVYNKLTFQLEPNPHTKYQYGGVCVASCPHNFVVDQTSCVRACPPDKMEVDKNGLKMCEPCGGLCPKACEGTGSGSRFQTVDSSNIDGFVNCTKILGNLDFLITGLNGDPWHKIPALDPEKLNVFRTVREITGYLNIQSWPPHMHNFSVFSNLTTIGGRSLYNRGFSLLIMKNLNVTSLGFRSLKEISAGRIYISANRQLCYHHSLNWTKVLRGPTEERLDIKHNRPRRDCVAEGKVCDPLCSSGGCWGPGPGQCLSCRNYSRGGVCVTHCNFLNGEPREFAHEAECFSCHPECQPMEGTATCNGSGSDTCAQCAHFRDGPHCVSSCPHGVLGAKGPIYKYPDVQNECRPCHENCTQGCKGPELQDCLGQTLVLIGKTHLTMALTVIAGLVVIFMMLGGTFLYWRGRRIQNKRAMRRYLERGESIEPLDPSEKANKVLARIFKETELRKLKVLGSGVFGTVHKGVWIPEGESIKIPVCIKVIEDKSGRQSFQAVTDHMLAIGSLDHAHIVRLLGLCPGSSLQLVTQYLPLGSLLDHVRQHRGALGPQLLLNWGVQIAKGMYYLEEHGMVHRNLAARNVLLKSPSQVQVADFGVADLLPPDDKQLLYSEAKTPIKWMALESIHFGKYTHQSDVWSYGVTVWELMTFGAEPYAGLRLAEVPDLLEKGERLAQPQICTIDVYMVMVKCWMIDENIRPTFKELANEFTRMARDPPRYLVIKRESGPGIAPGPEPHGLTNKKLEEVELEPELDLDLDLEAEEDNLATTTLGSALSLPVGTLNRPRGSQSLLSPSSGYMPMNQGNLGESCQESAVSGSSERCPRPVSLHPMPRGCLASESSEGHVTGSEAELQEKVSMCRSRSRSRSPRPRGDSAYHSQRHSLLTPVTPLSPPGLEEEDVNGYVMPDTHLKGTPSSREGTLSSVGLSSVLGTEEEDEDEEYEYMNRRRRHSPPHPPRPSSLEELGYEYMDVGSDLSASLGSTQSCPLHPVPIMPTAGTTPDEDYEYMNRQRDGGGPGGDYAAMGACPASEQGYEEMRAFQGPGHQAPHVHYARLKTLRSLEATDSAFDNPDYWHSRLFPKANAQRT
compound,measurement,setting,value
"Oc1ccc(C2=Cc3ccc(O)cc3OC2)cc1 [compound 1, idronoxil]",remaining binding at 10 µM,ERBB3,73%
same,remaining binding at 10 µM,CSF1R-autoinhibited,67%
same,remaining binding at 10 µM,RET,96%
same,remaining binding at 10 µM,EPHA3,89%
same,remaining binding at 10 µM,MAPK14,90%
same,remaining binding at 10 µM,DAPK2,56%
same,remaining binding at 10 µM,AKT3,84%
same,remaining binding at 10 µM,PDGFRB,18%
same,remaining binding at 10 µM,BUB1,91%
same,remaining binding at 10 µM,NEK10,69%
same,remaining binding at 10 µM,NEK6,100%
same,remaining binding at 10 µM,MAP4K3,92%
same,remaining binding at 10 µM,PRKCD,96%
same,remaining binding at 10 µM,LIMK2,90%
same,remaining binding at 10 µM,MAK,100%
same,remaining binding at 10 µM,NEK3,80%
same,remaining binding at 10 µM,MAP3K9,82%
same,remaining binding at 10 µM,TEK,96%
same,remaining binding at 10 µM,MYLK3,66%
same,remaining binding at 10 µM,CDK17,97%
